Measured values from patent publication US12337005B2, “Methods of treating thrombosis” (UNIVERSITY OF IOWA RESEARCH FOUNDATION, priority 2020, dated 2025).

Tests used:
integrin αIIbβ3 [1] = assay: Integrin αIIbβ3 activation (PAC-1 binding), human platelets; format: cell-based; conditions: convulxin or TRAP-induced
[2] = test system: male wild-type mice on C57B16/J background; assay: FeCl3 injury-induced carotid artery thrombosis; format: in vivo, mouse
Protocol: (§1) Initially ML265 dissolved in DMSO was mixed with 200 μl of deionized water and administered intra-peritoneally to the at a dose of 25 and 50-mg/Kg body weight. In vivo thrombosis and tail transection assays were performed 10 minutes after administration of ML265 or vehicle infusion by a person who was blinded to the drug and vehicle infusion.
Thrombus formation in the carotid artery after the FeCl3 injury was assessed by intravital microscopy. Briefly, 8-10 weeks old mice were anesthetized using 100-mg/kg ketamine and 10-mg/kg xylazine. Platelets labeled with calcein green (2.5×10^9 platelets per kg) were infused through the retro-orbital plexus. The common carotid artery was carefully exposed and kept moist by super-fusion with warm (˜37° C.) saline. Whatman paper (0.5×1.5 mm) saturated with ferric chloride (5%) solution was applied topically for 1.5 minutes for male and 2 mins for female mice, and thrombus formation in the injured carotid vessel was monitored in real time using a Nikon upright microscope (Plan Fluor 4×/0.2 objective), and thrombus growth overtime was recorded using a high-speed electron-multiplying camera for 40 minutes or until occlusion occurred. The time to form occlusive thrombus was considered as the time required for blood to stop flowing completely for >1 minute. Videos were evaluated off-line using a Nikon computer-assisted image analysis program.

[3] = test system: PI3 kinase-mediated Akt/GSK3β signaling; assay: Western blot of Akt/GSK3β phosphorylation, mouse platelets; format: cell-based; conditions: murine platelets, convulxin or thrombin mediated, ML265 50 and 100 μM
Protocol: Platelet proteins were separated on 4-20% SDS-PAGE (sodium dodecyl sulfate-polyacrylamide gel electrophoresis) gradient gels and electrophoretic transferred to PVDF (polyvinylidene fluoride) membrane by using Bio-Rad western blotting system. For PKM2 dimer and tetramer study 6% native gels are used. Membranes were blocked with 5% BSA or skimmed milk in 10 mM Tris-HCl, 150 mM NaCl, pH 8.0 (TBS) containing 0.05% Tween-20 for one hour at room temperature. Blots were incubated for overnight with primary antibody, followed by horseradish peroxidase-labeled secondary antibody for one hour. Blots were developed using enhanced chemiluminescence and quantified using Image J software from NIH (Bethesda, MD, USA).

integrin αIIbβ3 [4] = assay: Integrin αIIbβ3 activation (JONA binding), mouse platelets; format: cell-based; conditions: convulxin and PAR4-induced
[5] = test system: platelets from obese mice; assay: Platelet aggregation, platelets from obese mice; format: cell-based, mouse; conditions: collagen (1 μg/mL) and thrombin (0.02 U/mL)
From the text: (§2) FIGS. 16A-16D. ML265 inhibits platelet aggregation and arterial thrombosis in pre-existing comorbid condition of obesity. Wild-type (C57BL6/J) mice fed a chow and high-fat diet (Cat #TD.06414, Envigo, 60% Kcal from fat) for 4 months. (A) Blood glucose levels (B) Blood glucose levels during the insulin tolerance test. Statistics (A & B): Two-way ANOVA with Tukey's multiple comparisons test (*P<0.05, **P<0.01, ***P<0.001, ****P<0.0001; n=10 mice/group). (C) Platelet rich plasma or washed platelets from obese mice were pretreated with vehicle or ML265 and stimulated with agonists including collagen (1 μg/mL) and thrombin (0.02 U/mL). The results are represented as percent change light transmission after subtracting the blank (platelet poor plasma/Tyrode's buffer). […]
Platelet rich plasma (PRP) or washed platelets (2×10^8/ml) treated with vehicle (DMSO) or ML265 (50 and 100 μM) were stirred (1200 rpm) at 37° C. for 2 min in a whole blood/optical lumi-aggregometer (Chrono-log; model 700-2) before the addition of agonists (convulxin, collagen, thrombin, PAR4, TRAP (PAR1 agonist) or adenosine diphosphate [ADP]). Aggregation was measured as percent change in light transmission, where 100% refers to transmittance through the blank sample (PRP/Buffer). Platelet dense granule secretion was determined by measuring the release of ATP using luciferin-luciferase reagent. […]

murine platelets = assay: In vitro platelet aggregation, mouse platelet-rich plasma; format: cell-based; conditions: convulxin, collagen, PAR4 and ADP, ML265 50 and 100 μM
Protocol: Platelet rich plasma (PRP) or washed platelets (2×10^8/ml) treated with vehicle (DMSO) or ML265 (50 and 100 μM) were stirred (1200 rpm) at 37° C. for 2 min in a whole blood/optical lumi-aggregometer (Chrono-log; model 700-2) before the addition of agonists (convulxin, collagen, thrombin, PAR4, TRAP (PAR1 agonist) or adenosine diphosphate [ADP]). Aggregation was measured as percent change in light transmission, where 100% refers to transmittance through the blank sample (PRP/Buffer). Platelet dense granule secretion was determined by measuring the release of ATP using luciferin-luciferase reagent. To examine the effect of ML265 on ATP secretion, washed platelets were pretreated with vehicle (DMSO) or ML265 (50 and 100 μM) for 10 minutes before stimulation with various agonists. ATP release was performed in a lumi-aggregometer (Chrono-log; model 700-2) at 37° C.

[6] = test system: male obese mice (fed a high-fat diet for 4 months); assay: FeCl3-injury induced carotid artery thrombosis in obese mice; format: in vivo, mouse; conditions: 5.0% FeCl3 injury, infused with ML265
From the text: as §2
Thrombus formation in the carotid artery after the FeCl3 injury was assessed by intravital microscopy. […] Whatman paper (0.5×1.5 mm) saturated with ferric chloride (5%) solution was applied topically for 1.5 minutes for male and 2 mins for female mice, and thrombus formation in the injured carotid vessel was monitored in real time using a Nikon upright microscope (Plan Fluor 4×/0.2 objective), and thrombus growth overtime was recorded using a high-speed electron-multiplying camera for 40 minutes or until occlusion occurred. […] Videos were evaluated off-line using a Nikon computer-assisted image analysis program.

male mice = assay: Tail bleeding assay; format: in vivo, mouse; conditions: male mice pretreated with ML265
Protocol: as §1
Tail-transection bleeding time was measured. Briefly, mice (approximately 8 weeks of age) were anesthetized with 100-mg/kg ketamine and 10-mg/kg xylazine and placed on a heating pad warmed at 37° C., and a 3 mm segment of the tail was amputated with a sharp scalpel blade. The tail was immediately immersed in saline (at 37° C.), and the time taken for the stream of blood to stop for more than 30 seconds was defined as the bleeding time.

[7] = cited from earlier work
human platelets = assay: Lactate measurement, human platelets; format: cell-based; conditions: human platelets stimulated with convulxin or thrombin; ML265 pre-treated (50 or 100 μM)
Protocol: Washed platelets (5×10^8 platelets/mL) in DMEM (5 mM HEPES, 25 mM glucose, 1 mM pyruvate and 2 mM glutamine) were pre-treated with 50 or 100 μM of ML265 or vehicle (DMSO) for 10 mins and stimulated by convulxin (200 ng/ml) for 1 hr. Cells were centrifuged and supernatant was collected. Levels of L-lactate in supernatant were determined using a glycolysis cell based assay kit (Cayman; Item No. 600450) according to the manufacturer's instructions.

With Cn1c2cc([S+](C)[O-])sc2c2cnn(Cc3cccc(N)c3)c(=O)c21 (stereo not drawn) [ML265, 6-[(3-aminophenyl)methyl]-4,6-dihydro-4-methyl-2-(methylsulfinyl)-5H-thieno[2′,3′:4,5]pyrrolo[2,3-d]pyridazine-5-one] the “activation of αIIbβ3 (PAC-1 binding)” value (integrin αIIbβ3 [1]) was “decreased”, the “mice that did not occlude” value ([2]; ML265-pretreated wild-type mice) was 50% and the “time to occlusion, a large number of ML265 pre-treated mice (did not occlude)” value ([2]; control group approximately 20 mins) was greater than 40 min. The “rate of thrombus growth (slope over time)” value ([2]; male mice pretreated with ML265, 5% FeCl3, vehicle slope 4.862) was 1.531, the “time to complete vessel occlusion vs vehicle” value ([2]; male wild-type mice pretreated with ML265) was “significantly prolonged” and the “reduction in the extent of thrombus growth vs vehicle” value ([2]; male wild-type mice, ML265 i.p. 10 minutes before 5% FeCl3 injury) was roughly 4 fold. For the same molecule, the Akt phosphorylation [3] was “attenuated”, the GSK3β phosphorylation [3] was “attenuated” and the “activation of αIIbβ3 (JONA binding)” value (integrin αIIbβ3 [4]) was “decreased”. For the same molecule, the “platelet aggregation in pre-existing comorbid condition of obesity” value [5] was “inhibited”, the stimulus-dependent platelet aggregation (murine platelets) was “reduced” and the “arterial thrombosis in pre-existing comorbid condition of obesity” value [6] was “inhibited”. The “mean time to cessation of bleeding (tail-transection bleeding time) vs vehicle” value (male mice) was “comparable”, the half-life [7] was “short” and the lactate production (human platelets) was “significantly decreased”.
